Results: US20230107216A1, “PANTETHEINE DERIVATIVES AND USES THEREOF” (Comet Therapeutics, Inc., priority 2018, published 2023)
Read-outs that look alike come from different tables or passages of the source.

Columns and labels:
[1] = tested on: primary culture of rat embryo mesencephalic cells (microglia, astrocytes and neurons) exposed to LPS; assay: Neuroprotective effect on damage induced by LPS on culture of mesencephalic neurons (NO, TNF-α, IL-1β, TH positive neurons); assay type: cell-based; conditions: after 5 days of LPS exposure; for inhibition at 50 µM / inhibition at 10 µM: Rattus norvegicus, Neuron, 120 h, read-out: % reversion of TH positive neurons
Outline: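 E15 Wistar rat ventral mesencephalic cultures, day 7, pretreated 1 h with compound (0.1% DMSO) before LPS 10 ng/ml. NO (Griess) at 24 h and 5 days and IL-1β/TNF-α (ELISA) at 24 h, expressed vs LPS control = 100%; TH+ neurons counted by imaging at 5 days, vs non-intoxicated = 100%.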

[2] = tested on: Venular Endothelial cells (HUVEC) (3C system); assay: BioMAP 3C system (IL-1β, TNFα, IFNγ); assay type: cell-based, human; conditions: 10 uM; procedure of Example 825
Method: The BioMAP platform (BioMAP® Diversity PLUS® Panel from Eurofins) is an in vitro phenotypic profiling technology that screened the compounds of the present disclosure (hereafter indicated as test agents) in human primary cell-based systems modelling complex tissue and disease states. The BioMAP assays were performed using the Eurofin's BioMAP Technology Platform as (see references 1 to 13 in the example 824 section) to model different diseases on primary cell-based model systems. These systems consisted of either single primary cell types or co-culture cells. Adherent cell types were cultured or co-cultured in 96 or 384-well plates until confluence followed by the addition of compounds prepared in DMSO at a final concentration of ≤0.1%. In each cell-based system, primary cells from heathy donors (2-6 donors) were pooled and treated with compounds at 1 and 10 μM dose 1h prior to stimulation and remain in culture as indicated in Example 825, Example 826, Example 827, Example 828, Example 829, Example 830, Example 831, Example 832, Example 833, Example 834, Example 835, Example 836 and Example 837. For on the BioMAP® Diversity PLUS® Panel, please see the following references, which are incorporate herein.
Following the general procedure as described in Example 824, Venular Endothelial cells (HUVEC) (3C system) were treated with IL-1β, TNFα, IFNγ for 24h to model Th1 driven cardiovascular and chronic inflammation diseases in the presence or absence of the compounds. Biomarker read out were; Tissue Factor, ICAM-1, E-selectin, uPAR (CD87), IL-8, MIG, HLA-DR, proliferation and SRB (Sulfo-rhodamine i.e. staining for protein content).

In the case of `C[C@@H](O)CC(=O)CC(=O)SCCNC(=O)CCNC(=O)[C@H](O)C(C)(C)CO` [Compound 42, (2R)-2,4-dihydroxy-N-[2-[(2-[[(5R)-5-hydroxy-3-oxohexanoyl]sulfanyl]ethyl)carbamoyl]ethyl]-3,3-dimethylbutanamide], the “% decrease in NO release relative to LPS alone” value ([1]; 50 uM) is reported as at least 5%, the inhibition at 50 µM ([1]; 50 uM, list at threshold 15%) is reported as at least 15% and the inhibition at 50 µM ([1]; 50 uM, list at threshold 50%) is reported as at least 50%.

In the case of `COC(=O)CCC(=O)SCCNC(=O)CCNC(=O)[C@H](OC(=O)CNC(C)=O)C(C)(C)CO` [Compound 1298, methyl 4-[(2-[3-[(2R)-2-[(2-acetamidoacetyl)oxy]-4-hydroxy-3,3-dimethylbutanamido]propanamido]ethyl)sulfanyl]-4-oxobutanoate], the “% decrease in IL-8” value [2] is reported as at least 10%.

`COC(=O)CCC(=O)SCCNC(=O)CCNC(=O)[C@H](O)C(C)(C)COC(C)=O` [Compound 138] showed an inhibition at 50 µM ([1]; 50 uM, list at threshold 15%) of at least 15% and an inhibition at 50 µM ([1]; 50 uM, list at threshold 50%) of at least 50%.

`CC(C)(CO)[C@@H](O)C(=O)NCCC(=O)NCCSC(CC(=O)OCC[N+](C)(C)C)C(=O)O` (stereo partly drawn) [Compound 51, [2-([3-carboxy-3-[(2-[3-[(2R)-2,4-dihydroxy-3,3-dimethylbutanamido]propanamido]ethyl)sulfanyl]propanoyl]oxy)ethyl]trimethylazanium] was tested, and the “% decrease in NO release relative to LPS alone” value ([1]; 10 uM) was at least 5%, the inhibition at 50 µM ([1]; 50 uM, list at threshold 15%) was at least 15% and the inhibition at 50 µM ([1]; 50 uM, list at threshold 50%) was at least 50%.

With `COC(=O)CCC(=O)SCCNC(=O)CCNC(=O)[C@H](OC(=O)CN)C(C)(C)CO` [Compound 1294, methyl 4-[(2-[3-[(2R)-2-[(2-aminoacetyl)oxy]-4-hydroxy-3,3-dimethylbutanamido]propanamido]ethyl)sulfanyl]-4-oxobutanoate] the “% decrease in IL-8” value [2] was at least 10% and the “% increase in Proliferation (HUVEC)” value [2] was at least 20%.

`COC(=O)CC(C(C)=O)C(=O)SCCNC(=O)CCNC(=O)[C@H](O)C(C)(C)CO` (stereo partly drawn) [Compound 410] was tested, and the “% decrease in NO release relative to LPS alone” value ([1]; 50 uM) was at least 10% and the inhibition at 50 µM ([1]; 50 uM, list at threshold 15%) was at least 15%.

`C[C@@H](O)CC(=O)SCCNC(=O)CCNC(=O)[C@H](O)C(C)(C)CO` [Compound 38, S-2-{3-[(R)-2,4-dihydroxy-3,3-dimethylbutyrylamino]propionylamino} ethyl (R)-3-hydroxybutanethioate] was tested, and the inhibition at 10 µM ([1]; 10 uM, list at threshold 15%) was at least 15%.

With `CC(C)(CO)[C@@H](O)C(=O)NCCC(=O)NCCSC(=O)[C@@H](N)Cc1ccc(O)c(O)c1` [Compound 371, (2R)—N-[2-[(2-[[(2S)-2-amino-3-(3,4-dihydroxyphenyl)propanoyl]sulfanyl]ethyl)carbamoyl]ethyl]-2,4-dihydroxy-3,3-dimethylbutanamide] the “% increase in Proliferation (HUVEC)” value [2] was at least 10%.

For `CCCCCCC(=O)SCCNC(=O)CCNC(=O)[C@H](O)C(C)(C)CO` [Compound 372, (2R)—N-(2-[[2-(heptanoylsulfanyl)ethyl]carbamoyl]ethyl)-2,4-dihydroxy-3,3-dimethylbutanamide], the “% increase in Proliferation (HUVEC)” value [2] was at least 20%.

`CC(=O)SCCNC(=O)CCNC(=O)[C@H](O)C(C)(C)COC(=O)[C@@H](N)Cc1ccc(O)c(O)c1` [Compound 498, (3R)-3-[(2-[[2-(acetylsulfanyl)ethyl]carbamoyl]ethyl)carbamoyl]-3-hydroxy-2,2-dimethylpropyl (2S)-2-amino-3-(3,4-dihydroxyphenyl)propanoate] showed an inhibition at 50 µM ([1]; 50 uM, list at threshold 15%) of at least 15%.

In the case of `CC(=O)OCC(C)(C)[C@@H](O)C(=O)NCCC(=O)NCCSC(=O)CC(=O)CCC(=O)O` [Compound 140, 6-[(2-[3-[(2R)-4-(acetyloxy)-2-hydroxy-3,3-dimethylbutanamido]propanamido]ethyl)sulfanyl]-4,6-dioxohexanoic acid], the inhibition at 50 µM ([1]; 50 uM, list at threshold 15%) is reported as at least 15% and the inhibition at 50 µM ([1]; 50 uM, list at threshold 50%) is reported as at least 50%.

With `CC(=O)OCC(C)(C)[C@@H](OC(C)=O)C(=O)NCCC(=O)NCCSC(C)=O` [Compound 1264, (1R)-3-(acetyloxy)-1-[(2-[[2-(acetylsulfanyl)ethyl]carbamoyl]ethyl)carbamoyl]-2,2-dimethylpropyl acetate] the “% increase in Proliferation (HUVEC)” value [2] was at least 10%.

`CC(C)(COC(=O)OCC[N+](C)(C)C)[C@@H](O)C(=O)NCCC(=O)NCCSC(=O)CCC(=O)O` [Compound 116, [2-([[(3R)-3-[[2-([2-[(3-carboxypropanoyl)sulfanyl]ethyl]carbamoyl)ethyl]carbamoyl]-3-hydroxy-2,2-dimethylpropoxy]carbonyl]oxy)ethyl]trimethylazanium] showed an inhibition at 10 µM ([1]; 10 uM, list at threshold 15%) of at least 15%.
